Assays:
Format in all cases: in vivo, human
[1] = system: patients known to give positive skin test to penicillin derivatives; assay: Intradermal skin test with BPO-amines and other penicillin allergy skin test materials (Table II); settings: for Skin test reaction of patient four, in words: text summary of Table II; for Intensity of reactions in patients: patient iota: patient nine; for Intensity of reactions in patients: patient zeta: patient one; for Intensity of reactions in patients: patient epsilon: patient seven; for Intensity of reactions in patients: delta: patient six; for Intensity of reactions in patients: beta: patient three; for Intensity of reactions in patients: patient gamma: patient eight; for Skin test reaction of patient four, in words / Intensity of reactions in patients: patient alpha: patient four; for Intensity of reactions in patients: theta: patient two
From the text: Benzylpenicillin (PG) was 1.0×10^-2 M in 0.11M saline.
Sodium benzylpenicilloate plus sodium benzylpenilloate (P/P) was 1.0×10^-2 M of each dissolved in phosphate buffered saline at pH 7.5.
Benzylpenicilloyl-amine (BPO-amine) was 1.0×10^-2 M concentration phosphate buffered saline at pH 7.5.
Benzylpenicilloyl-n-propyl amine and benzylpenicilloyl-n-ethyl amine (as α-diastereoisomers) were each dissolved to 1.0×10^-2 M concentration in phosphate buffered saline at pH 7.5.
They were healthy men and women ranging in age from 23 to 56 years. Ten people negative to the skin test materials served as controls.
Using 1.0 ml tuberculin syringes with #26 needles and intradermal bevels, 0.01 ml volumes of the test materials were injected intradermally into the anterior-lateral aspects of the arms. Skin tests were read in 15 minutes. A negative reaction is the poorly outlined bleb of fluid --1-3 mm in diameter without surrounding erythema. Positive tests were sharply outlined wheals of 4-20 mm diameter with surrounding erythema. The positive tests were graded as 1+,2+,3+ and 4+ on the basis of wheal diameter. 1+=4-6 mm; 2+=7-9 mm; 3+=10-12 mm; and 4+=more than 13 mm with pseudopods. […] Skin tests were done in duplicate.

[2] = system: patients allergic to penicillin; assay: Prick skin test with B8 L8 solution; settings: Patient No. 1; B8 L8 1×10^-6 molar in tris-buffered saline pH 8.2
Procedure: (§1) The B8 L8 stock solution was diluted to 1×10^-6 molar in tris-buffered saline with a pH of 8.2, also containing ethylenediaminetetraceticacid (2×10^-4 molar) for stability. The composition was then used in skin testing. The tests were conducted by both the prick test and intradermal test methods, and the results were as follows:
Patient No. 1--prick test--B8 L8 =2+.

[3] = system: patients allergic to penicillin; assay: Intradermal skin test with B8 L8 solution; settings: Patient No. 2; B8 L8 1×10^-6 molar in tris-buffered saline pH 8.2
Procedure: as §1
Patient No. 2--intradermal test--the B8 L8 gave a 10 mm wheal and rated from 2+ to 3+ in intensity.

[4] = intradermal 0.01 ml, read in 15 minutes, BPL 1 × 10^-6 M, other materials 1 × 10^-2 M

| Molecule | Skin test reaction of patient four, in words [1] | Intensity of reactions in patients: patient iota [1, 4] | Intensity of reactions in patients: patient zeta [1, 4] | Intensity of reactions in patients: patient epsilon [1, 4] | Intensity of reactions in patients: delta [1, 4] | Intensity of reactions in patients: beta [1, 4] | Intensity of reactions in patients: patient gamma [1, 4] | Intensity of reactions in patients: patient eta ([1]; patient five, intradermal 0.01 ml, read in 15 minutes, BPL 1 × 10^-6 M, other materials 1 × 10^-2 M) | Intensity of reactions in patients: patient alpha [1, 4] | Intensity of reactions in patients: theta [1, 4] | Prick test reaction intensity [2] | Size of the wheal (diameter), prick test [2] | Wheal, intradermal test [3] [mm] |
| --- | --- | --- | --- | --- | --- | --- | --- | --- | --- | --- | --- | --- | --- |
| CCCNC(=O)[C@@H](NC(=O)Cc1ccccc1)[C@@H]1N[C@@H](C(=O)O)C(C)(C)S1 [BPO-propyl amine, Benzylpenicilloyl-n-propyl amine] | positive reaction | 1+ (1+=4-6 mm) | 1 - 2° | trace | 0 (A negative reaction is the poorly outlined bleb of fluid --1-3 mm in diameter without surrounding erythema) | 2+ (2+=7-9 mm) |  |  |  |  |  |  |  |
| CC1(C)S[C@@H]2[C@H](NC(=O)Cc3ccccc3)C(=O)N2[C@H]1C(=O)O [PG, Benzylpenicillin] |  | trace | 2+ (2+=7-9 mm) | trace | 0 (A negative reaction is the poorly outlined bleb of fluid --1-3 mm in diameter without surrounding erythema) | 1+ (1+=4-6 mm) | 0 (A negative reaction is the poorly outlined bleb of fluid --1-3 mm in diameter without surrounding erythema) | 0 (A negative reaction is the poorly outlined bleb of fluid --1-3 mm in diameter without surrounding erythema) | 0 (A negative reaction is the poorly outlined bleb of fluid --1-3 mm in diameter without surrounding erythema) | 2+ (2+=7-9 mm) |  |  |  |
| Benzylpenicilloyl-amine [BPO-amine] |  | 2+ (2+=7-9 mm) |  | trace | 0 (A negative reaction is the poorly outlined bleb of fluid --1-3 mm in diameter without surrounding erythema) |  | 1+ (1+=4-6 mm) |  | 1+ (1+=4-6 mm) |  |  |  |  |
| CCNC(=O)C(NC(=O)Cc1ccccc1)C1NC(C(=O)O)C(C)(C)S1 (centres unmarked) [BPO-ethyl amine, benzylpenicilloyl-n-ethyl amine] | positive reaction | 0 (A negative reaction is the poorly outlined bleb of fluid --1-3 mm in diameter without surrounding erythema) |  | trace | 0 (A negative reaction is the poorly outlined bleb of fluid --1-3 mm in diameter without surrounding erythema) |  |  |  | 2+ (2+=7-9 mm) | 3+ (3+=10-12 mm) |  |  |  |
| Benzylpenicilloyl8 -Poly-L-Lysine8 [B8 L8] |  |  |  |  |  |  |  |  |  |  | 2+ (2+=7-9 mm) | 4-5 mm | 10 |

— patent US4183910A, “Method for testing to predict and/or diagnose allergy to penicillins, and compounds and compositions for use in such tests” (priority 1978, dated 1980)
